Where two headings read alike, the source gives them in different places.
Legend:
[1] = tested on: H1N1 serum subtype of swine influenza virus (SIV); format: in vivo, yellow chickens; settings: 10 mg/day once per day for 11 days
[2] = tested on: H1N1 subtype serum swine influenza virus; format: in vivo, yellow chickens; settings: 10 mg/day injected once per day for 7 days
[3] = tested on: swine influenza virus A/California/4/2009 and A/Hong Kong/xx/2008; format: cell-based, MDCK cells (Madin-Darby Canine Kidney Cells)

Row | Structure (SMILES) | Death Rate ([1]; 40 infected chickens) | Effective Rate ([1]; 40 infected chickens) | Number of Death ([1]; of 40 infected chickens) | Death Rate ([2]; 30 infected chickens) | Effective Rate ([2]; 30 infected chickens) | Number of Death ([2]; of 30 infected chickens) | Number of Detectable viruses/Total Number ([3]; Day 2, Tamiflu 10 μmol/ml) | Number of Detectable viruses/Total Number ([3]; Day 2, Tamiflu 100 μmol/ml) | Number of Detectable viruses/Total Number ([3]; Day 3, Tamiflu 10 μmol/ml) | Number of Detectable viruses/Total Number ([3]; Day 3, Tamiflu 100 μmol/ml)
1 | CC(N)C12CC3CC(CC(C3)C1)C2 (stereo not shown) [Group C, rimantadine] | 62.5%^ | 37.5% | 25 | 63.3%^ | 36.6% | 19 | – | – | – | –
2 | CCOC(=O)C1=C[C@@H](OC(CC)CC)[C@H](NC(C)=O)[C@@H](N)C1 [Tamiflu, Oseltamivir phosphate] | – | – | – | – | – | – | 1/2 | 0/2 | 2/2 | 2/2
